According to ChEMBL document CHEMBL1144513, “Synthesis and SAR study of novel 7-(pyridinium-3-yl)-carbonyl imidazo[5,1-b]thiazol-2-yl carbapenems” (2007):
Values after ≈ are worked out from the molar mass of the structure shown.

How the values were obtained:
Format in all cases: functional
Staphylococcus aureus [1] = test: Antibacterial activity against Staphylococcus aureus 209P JC1 by agar dilution method
Staphylococcus aureus [2] = test: Antibacterial activity against methicillin-resistant Staphylococcus aureus M126 by agar dilution method
Staphylococcus aureus [3] = test: Antibacterial activity against carbapenem and methicillin-resistant Staphylococcus aureus M126HR by agar dilution method
Streptococcus pneumoniae = test: Antibacterial activity against penicillin-resistant Streptococcus pneumoniae KK133 by agar dilution method
Escherichia coli = test: Antibacterial activity against Escherichia coli NIHJ JC2 by agar dilution method
Klebsiella pneumoniae = test: Antibacterial activity against Klebsiella pneumoniae GN69 by agar dilution method
Moraxella catarrhalis = test: Antibacterial activity against Moraxella catarrhalis W-0500 by agar dilution method
Haemophilus influenzae = test: Antibacterial activity against beta-lactamase-negative ampicillin-resistant Haemophilus influenzae 870 by agar dilution method

| Structure (SMILES) | MIC (Staphylococcus aureus [1]) | MIC (Staphylococcus aureus [2]) | MIC (Staphylococcus aureus [3]) | MIC (Streptococcus pneumoniae) | MIC (Escherichia coli) | MIC (Klebsiella pneumoniae) | MIC (Moraxella catarrhalis) | MIC (Haemophilus influenzae) |
| --- | --- | --- | --- | --- | --- | --- | --- | --- |
| C[C@@H](O)[C@H]1C(=O)N2C(C(=O)[O-])=C(c3cn4cnc(C(=O)c5ccc[n+](CCNS(N)(=O)=O)c5)c4s3)[C@H](C)[C@H]12 | ≤ 0.008 µg/mL | 1 µg/mL (≈ 1.78 µM) | 2 µg/mL (≈ 3.57 µM) | 0.031 µg/mL (≈ 0.0553 µM) | 0.031 µg/mL (≈ 0.0553 µM) | 0.063 µg/mL (≈ 0.112 µM) | 0.016 µg/mL (≈ 0.0285 µM) | 0.063 µg/mL (≈ 0.112 µM) |
| CCOC(=O)C[n+]1cccc(C(=O)c2ncn3cc(C4=C(C(=O)[O-])N5C(=O)[C@H]([C@@H](C)O)[C@H]5[C@H]4C)sc23)c1 | 0.016 µg/mL (≈ 0.0305 µM) | 2 µg/mL (≈ 3.81 µM) | 8 µg/mL (≈ 15.3 µM) | 0.063 µg/mL (≈ 0.12 µM) | 0.031 µg/mL (≈ 0.0591 µM) | 0.063 µg/mL (≈ 0.12 µM) | 0.031 µg/mL (≈ 0.0591 µM) | 0.063 µg/mL (≈ 0.12 µM) |
| C[C@@H](O)[C@H]1C(=O)N2C(C(=O)O)=C(c3cn4cnc(C(=O)c5ccncc5)c4s3)[C@H](C)[C@H]12 | ≤ 0.008 µg/mL | 0.063 µg/mL (≈ 0.144 µM) | 4 µg/mL (≈ 9.12 µM) | 0.031 µg/mL (≈ 0.0707 µM) | 2 µg/mL (≈ 4.56 µM) | 2 µg/mL (≈ 4.56 µM) | 0.031 µg/mL (≈ 0.0707 µM) | 0.031 µg/mL (≈ 0.0707 µM) |
| C[C@@H](O)[C@H]1C(=O)N2C(C(=O)[O-])=C(c3cn4cnc(C(=O)c5ccc[n+](C)c5)c4s3)[C@H](C)[C@H]12 | ≤ 0.008 µg/mL | 1 µg/mL (≈ 2.21 µM) | 4 µg/mL (≈ 8.84 µM) | 0.031 µg/mL (≈ 0.0685 µM) | 0.063 µg/mL (≈ 0.139 µM) | 0.063 µg/mL (≈ 0.139 µM) | 0.031 µg/mL (≈ 0.0685 µM) | 0.063 µg/mL (≈ 0.139 µM) |
| C[C@@H](O)[C@H]1C(=O)N2C(C(=O)O)=C(c3cn4cnc(C(=O)c5cn(C)c6ccccc56)c4s3)[C@H](C)[C@H]12 | 0.008 µg/mL (≈ 0.0163 µM) | 0.031 µg/mL (≈ 0.0632 µM) | 8 µg/mL (≈ 16.3 µM) | 0.125 µg/mL (≈ 0.255 µM) | 4 µg/mL (≈ 8.15 µM) | 8 µg/mL (≈ 16.3 µM) | 0.016 µg/mL (≈ 0.0326 µM) | 0.125 µg/mL (≈ 0.255 µM) |
| CCc1nc(C(=O)c2ccc[n+](CC(N)=O)c2)c2sc(C3=C(C(=O)[O-])N4C(=O)[C@H]([C@@H](C)O)[C@H]4[C@H]3C)cn12 | 0.016 µg/mL (≈ 0.0306 µM) | 1 µg/mL (≈ 1.91 µM) | 4 µg/mL (≈ 7.64 µM) | 0.031 µg/mL (≈ 0.0592 µM) | 2 µg/mL (≈ 3.82 µM) | 4 µg/mL (≈ 7.64 µM) | 0.031 µg/mL (≈ 0.0592 µM) | 0.063 µg/mL (≈ 0.12 µM) |
| C[C@@H](O)[C@H]1C(=O)N2C(C(=O)O)=C(c3cn4cnc(C(=O)[C@@H]5CCCN5)c4s3)[C@H](C)[C@H]12 | ≤ 0.008 µg/mL | 1 µg/mL (≈ 2.32 µM) | 4 µg/mL (≈ 9.29 µM) | 0.063 µg/mL (≈ 0.146 µM) | 0.125 µg/mL (≈ 0.29 µM) | 0.125 µg/mL (≈ 0.29 µM) | 0.031 µg/mL (≈ 0.072 µM) | 0.125 µg/mL (≈ 0.29 µM) |
| C[C@@H](O)[C@H]1C(=O)N2C(C(=O)O)=C(c3cn4cnc(C(=O)c5cncs5)c4s3)[C@H](C)[C@H]12 | ≤ 0.008 µg/mL | 0.031 µg/mL (≈ 0.0697 µM) | 4 µg/mL (≈ 9 µM) | 0.031 µg/mL (≈ 0.0697 µM) | 1 µg/mL (≈ 2.25 µM) | 2 µg/mL (≈ 4.5 µM) | 0.016 µg/mL (≈ 0.036 µM) | 0.063 µg/mL (≈ 0.142 µM) |
| CSc1nc(C(=O)c2ccc[n+](CC(N)=O)c2)c2sc(C3=C(C(=O)[O-])N4C(=O)[C@H]([C@@H](C)O)[C@H]4[C@H]3C)cn12 | 0.008 µg/mL (≈ 0.0148 µM) | 0.5 µg/mL (≈ 0.923 µM) | 1 µg/mL (≈ 1.85 µM) | 0.016 µg/mL (≈ 0.0295 µM) | 4 µg/mL (≈ 7.39 µM) | 4 µg/mL (≈ 7.39 µM) | 0.016 µg/mL (≈ 0.0295 µM) | 0.031 µg/mL (≈ 0.0572 µM) |
| CSc1c2sc(C3=C(C(=O)[O-])N4C(=O)[C@H]([C@@H](C)O)[C@H]4[C@H]3C)cn2c[n+]1CC(N)=O | 0.008 µg/mL (≈ 0.0183 µM) | 1 µg/mL (≈ 2.29 µM) | 4 µg/mL (≈ 9.16 µM) | 0.031 µg/mL (≈ 0.071 µM) | 0.016 µg/mL (≈ 0.0367 µM) | 0.031 µg/mL (≈ 0.071 µM) | 0.031 µg/mL (≈ 0.071 µM) | 0.5 µg/mL (≈ 1.15 µM) |
| C[C@@H](O)[C@H]1C(=O)N2C(C(=O)[O-])=C(c3cn4c(N5CCOCC5)nc(C(=O)c5ccc[n+](CC(N)=O)c5)c4s3)[C@H](C)[C@H]12 | 0.031 µg/mL (≈ 0.0534 µM) | 2 µg/mL (≈ 3.44 µM) | 8 µg/mL (≈ 13.8 µM) | 0.063 µg/mL (≈ 0.109 µM) | 16 µg/mL (≈ 27.6 µM) | 16 µg/mL (≈ 27.6 µM) | 0.063 µg/mL (≈ 0.109 µM) | 0.125 µg/mL (≈ 0.215 µM) |
| C[C@@H](O)[C@H]1C(=O)N2C(C(=O)[O-])=C(c3cn4cnc(C(=O)c5ccc[n+](CCS(C)(=O)=O)c5)c4s3)[C@H](C)[C@H]12 | ≤ 0.008 µg/mL | 1 µg/mL (≈ 1.84 µM) | 4 µg/mL (≈ 7.34 µM) | 0.031 µg/mL (≈ 0.0569 µM) | 0.5 µg/mL (≈ 0.918 µM) | 0.5 µg/mL (≈ 0.918 µM) | 0.016 µg/mL (≈ 0.0294 µM) | 0.063 µg/mL (≈ 0.116 µM) |
| C[C@@H](O)[C@H]1C(=O)N2C(C(=O)[O-])=C(c3cn4c(C5CC5)nc(C(=O)c5ccc[n+](CC(N)=O)c5)c4s3)[C@H](C)[C@H]12 | 0.016 µg/mL (≈ 0.0299 µM) | 0.5 µg/mL (≈ 0.934 µM) | 2 µg/mL (≈ 3.73 µM) | 0.031 µg/mL (≈ 0.0579 µM) | 4 µg/mL (≈ 7.47 µM) | 4 µg/mL (≈ 7.47 µM) | 0.016 µg/mL (≈ 0.0299 µM) | 0.031 µg/mL (≈ 0.0579 µM) |
| C[C@@H](O)[C@H]1C(=O)N2C(C(=O)[O-])=C(c3cn4cnc(C(=O)c5ccc[n+](Cc6ccccc6)c5)c4s3)[C@H](C)[C@H]12 | ≤ 0.008 µg/mL | 0.5 µg/mL (≈ 0.946 µM) | 4 µg/mL (≈ 7.57 µM) | 0.016 µg/mL (≈ 0.0303 µM) | 0.5 µg/mL (≈ 0.946 µM) | 1 µg/mL (≈ 1.89 µM) | 0.063 µg/mL (≈ 0.119 µM) | 0.063 µg/mL (≈ 0.119 µM) |
| C[C@@H](O)[C@H]1C(=O)N2C(C(=O)[O-])=C(c3cn4c(Cl)nc(C(=O)c5ccc[n+](CC(N)=O)c5)c4s3)[C@H](C)[C@H]12 | 0.008 µg/mL (≈ 0.0151 µM) | 0.5 µg/mL (≈ 0.943 µM) | 2 µg/mL (≈ 3.77 µM) | 0.031 µg/mL (≈ 0.0585 µM) | 1 µg/mL (≈ 1.89 µM) | 2 µg/mL (≈ 3.77 µM) | 0.016 µg/mL (≈ 0.0302 µM) | 0.063 µg/mL (≈ 0.119 µM) |
| C[C@@H](O)[C@H]1C(=O)N2C(C(=O)[O-])=C(c3cn4cnc(C(=O)c5ccc[n+](CC(=O)O)c5)c4s3)[C@H](C)[C@H]12 | 0.031 µg/mL (≈ 0.0624 µM) | 2 µg/mL (≈ 4.03 µM) | 8 µg/mL (≈ 16.1 µM) | 0.063 µg/mL (≈ 0.127 µM) | 0.031 µg/mL (≈ 0.0624 µM) | 0.063 µg/mL (≈ 0.127 µM) | 0.031 µg/mL (≈ 0.0624 µM) | 0.063 µg/mL (≈ 0.127 µM) |
| C[C@@H](O)[C@H]1C(=O)N2C(C(=O)[O-])=C(c3cn4cnc(C(=O)c5ccc[n+](CC(N)=O)c5)c4s3)[C@H](C)[C@H]12 | ≤ 0.008 µg/mL | 0.5 µg/mL (≈ 1.01 µM) | 2 µg/mL (≈ 4.04 µM) | 0.031 µg/mL (≈ 0.0626 µM) | 0.031 µg/mL (≈ 0.0626 µM) | 0.063 µg/mL (≈ 0.127 µM) | 0.016 µg/mL (≈ 0.0323 µM) | 0.063 µg/mL (≈ 0.127 µM) |
| CN[C@H](CC(C)C)C(=O)N[C@H]1C(=O)N[C@@H](CC(N)=O)C(=O)N[C@H]2C(=O)N[C@H]3C(=O)N[C@H](C(=O)N[C@H](C(=O)O)c4cc(O)cc(O)c4-c4cc3ccc4O)[C@H](O)c3ccc(c(Cl)c3)Oc3cc2cc(c3O[C@@H]2O[C@H](CO)[C@@H](O)[C@H](O)[C@H]2O[C@H]2C[C@](C)(N)[C@H](O)[C@H](C)O2)Oc2ccc(cc2Cl)[C@H]1O [VANCOMYCIN] | – | – | – | 0.5 µg/mL (≈ 0.345 µM) | > 128 µg/mL | > 128 µg/mL | 64 µg/mL (≈ 44.2 µM) | > 128 µg/mL |
| C[C@@H](O)[C@H]1C(=O)N2C(C(=O)[O-])=C(c3cn4cnc(C(=O)c5ccc[n+](CCN(C)C)c5)c4s3)[C@H](C)[C@H]12 | ≤ 0.008 µg/mL | 1 µg/mL (≈ 1.96 µM) | 4 µg/mL (≈ 7.85 µM) | 0.031 µg/mL (≈ 0.0608 µM) | 0.125 µg/mL (≈ 0.245 µM) | 0.25 µg/mL (≈ 0.491 µM) | 0.031 µg/mL (≈ 0.0608 µM) | 0.063 µg/mL (≈ 0.124 µM) |
| C[C@@H](O)[C@H]1C(=O)N2C(C(=O)O)=C(c3cn4cnc(C(=O)[C@@H]5C[C@@H](O)CN5)c4s3)[C@H](C)[C@H]12 | 0.016 µg/mL (≈ 0.0358 µM) | 1 µg/mL (≈ 2.24 µM) | 4 µg/mL (≈ 8.96 µM) | 0.063 µg/mL (≈ 0.141 µM) | 0.063 µg/mL (≈ 0.141 µM) | 0.125 µg/mL (≈ 0.28 µM) | 0.031 µg/mL (≈ 0.0694 µM) | 0.125 µg/mL (≈ 0.28 µM) |
| C[C@@H](O)[C@H]1C(=O)N2C(C(=O)O)=C(c3cn4cnc(C(=O)c5cccs5)c4s3)[C@H](C)[C@H]12 | ≤ 0.008 µg/mL | 0.031 µg/mL (≈ 0.0699 µM) | 4 µg/mL (≈ 9.02 µM) | 0.125 µg/mL (≈ 0.282 µM) | 2 µg/mL (≈ 4.51 µM) | 4 µg/mL (≈ 9.02 µM) | 0.016 µg/mL (≈ 0.0361 µM) | 0.125 µg/mL (≈ 0.282 µM) |
